Experimental data reported in ChEMBL document CHEMBL5370660, “Design of a Supersoft Topical JAK Inhibitor, Which Is Effective in Human Skin but Rapidly Deactivated in Blood” (J Med Chem, 2023).

Columns and labels:
[1] = molecular target: Tyrosine-protein kinase JAK2 (Homo sapiens, UniProt O60674); assay: Inhibition of GST-fused JAK2 (808 to 1132 residues)(unknown origin) using Carboxyfluorescein-Ahx-GGEEEEYFELVKKKK peptide as substrate incubated for 30 mins in presence of ATP by caliper microfluidic mobility shift assay
JAK3/JAK1 = JAK3/JAK1 (Homo sapiens, UniProt P23458+P52333); assay: Inhibition of JAK1/3-mediated STAT5 phosphorylation in human M07E cells preincubated for 30 mins followed by IL-15 stimulation measured after 15 mins by flow cytometry; assay type: cell-based
[2] = Stability in human whole blood assessed as half life at 1 uM incubated upto 8 hrs by LC-MS/MS analysis; assay type: ADME, tissue-based
[3] = Metabolic stability in human skin S9 fraction measured upto 120 mins by LC-MS analysis; assay type: ADME, subcellular
[4] = Drug penetration in fresh human skin explant using Franz diffusion cell model assessed as concentration of 2-(6-((5-carbamoyl-4-((2-methoxyphenyl)amino)pyridin-2-yl)amino)pyridin-3-yl)acetic acid metabolite in receiver fluid at 3 % administered topically preincubated overnight followed by fresh media replacement in receiver fluid without compound and subsequently stimulated with IL-4/IL-13 measured after 24 hrs by LC-MS/MS analysis; assay type: ADME, tissue-based, Skin of body; conditions: topical_or_ocular
[5] = molecular target: T1, Mitogen-activated protein kinase kinase kinase 2 (Homo sapiens, UniProt Q9Y2U5); assay: Inhibition of MAP3K2 (unknown origin)
T1 sequence (Q9Y2U5 whole entry): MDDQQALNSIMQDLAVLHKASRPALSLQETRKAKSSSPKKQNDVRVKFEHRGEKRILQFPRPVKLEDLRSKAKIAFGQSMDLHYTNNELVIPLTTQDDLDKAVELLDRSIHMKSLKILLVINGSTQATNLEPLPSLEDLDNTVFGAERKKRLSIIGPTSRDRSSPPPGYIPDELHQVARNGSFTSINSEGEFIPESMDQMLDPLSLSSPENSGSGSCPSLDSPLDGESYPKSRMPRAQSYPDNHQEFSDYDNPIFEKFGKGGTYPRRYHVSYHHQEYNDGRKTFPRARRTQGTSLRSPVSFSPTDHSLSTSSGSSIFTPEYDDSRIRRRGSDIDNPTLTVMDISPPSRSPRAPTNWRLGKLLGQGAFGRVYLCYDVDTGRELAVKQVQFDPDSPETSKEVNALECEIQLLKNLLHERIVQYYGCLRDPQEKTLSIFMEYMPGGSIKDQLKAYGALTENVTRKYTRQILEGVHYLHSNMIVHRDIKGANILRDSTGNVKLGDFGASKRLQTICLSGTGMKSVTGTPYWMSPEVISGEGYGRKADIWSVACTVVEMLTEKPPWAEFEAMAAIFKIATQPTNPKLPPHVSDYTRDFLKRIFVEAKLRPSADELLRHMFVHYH

[6] = Stability in dermis human abdominal skin upto 2.5 % administered topically as ointment treated for 24 hrs followed by removal of ointment and stratum corneum and subsequently stimulated with IL-4/IL-13 measured after 3 hrs; assay type: ADME, tissue-based, Abdomen skin; conditions: topical_or_ocular, 27 h, route top
[7] = Drug metabolism in rat assessed as excretion of 2-(6-((5-carbamoyl-4-((2-methoxyphenyl)amino)pyridin-2-yl)amino)pyridin-3-yl)acetic acid metabolite by measuring half life; assay type: ADME

Sequence of Tyrosine-protein kinase JAK2 (O60674 whole entry, the tested form may be a part): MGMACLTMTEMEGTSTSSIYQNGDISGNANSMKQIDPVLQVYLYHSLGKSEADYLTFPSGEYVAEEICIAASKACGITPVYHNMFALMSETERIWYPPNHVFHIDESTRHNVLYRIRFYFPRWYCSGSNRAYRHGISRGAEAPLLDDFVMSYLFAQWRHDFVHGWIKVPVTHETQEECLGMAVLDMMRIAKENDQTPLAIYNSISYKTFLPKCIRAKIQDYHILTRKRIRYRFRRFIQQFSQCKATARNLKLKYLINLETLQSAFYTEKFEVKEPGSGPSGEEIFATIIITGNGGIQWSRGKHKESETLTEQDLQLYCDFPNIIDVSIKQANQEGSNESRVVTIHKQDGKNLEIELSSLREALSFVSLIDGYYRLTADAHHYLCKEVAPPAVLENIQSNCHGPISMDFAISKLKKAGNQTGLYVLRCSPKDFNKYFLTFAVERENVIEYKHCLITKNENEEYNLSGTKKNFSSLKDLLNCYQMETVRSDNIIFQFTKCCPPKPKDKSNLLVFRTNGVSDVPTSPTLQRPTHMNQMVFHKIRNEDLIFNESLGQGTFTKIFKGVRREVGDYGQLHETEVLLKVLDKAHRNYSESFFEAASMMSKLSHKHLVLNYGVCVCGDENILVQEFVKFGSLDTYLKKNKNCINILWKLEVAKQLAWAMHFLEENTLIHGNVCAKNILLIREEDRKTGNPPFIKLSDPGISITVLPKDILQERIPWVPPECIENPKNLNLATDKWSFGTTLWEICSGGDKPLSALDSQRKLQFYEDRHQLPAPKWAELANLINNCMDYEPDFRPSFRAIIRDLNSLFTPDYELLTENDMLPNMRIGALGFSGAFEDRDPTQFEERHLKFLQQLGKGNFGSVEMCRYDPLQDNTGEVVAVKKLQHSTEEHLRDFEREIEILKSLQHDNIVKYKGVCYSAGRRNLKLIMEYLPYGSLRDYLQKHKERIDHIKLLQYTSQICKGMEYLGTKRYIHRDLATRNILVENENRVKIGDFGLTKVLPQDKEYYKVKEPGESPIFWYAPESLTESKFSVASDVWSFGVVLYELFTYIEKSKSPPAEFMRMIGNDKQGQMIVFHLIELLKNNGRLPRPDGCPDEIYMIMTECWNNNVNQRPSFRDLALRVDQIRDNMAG
Sequence of JAK3/JAK1 (P52333 whole entry): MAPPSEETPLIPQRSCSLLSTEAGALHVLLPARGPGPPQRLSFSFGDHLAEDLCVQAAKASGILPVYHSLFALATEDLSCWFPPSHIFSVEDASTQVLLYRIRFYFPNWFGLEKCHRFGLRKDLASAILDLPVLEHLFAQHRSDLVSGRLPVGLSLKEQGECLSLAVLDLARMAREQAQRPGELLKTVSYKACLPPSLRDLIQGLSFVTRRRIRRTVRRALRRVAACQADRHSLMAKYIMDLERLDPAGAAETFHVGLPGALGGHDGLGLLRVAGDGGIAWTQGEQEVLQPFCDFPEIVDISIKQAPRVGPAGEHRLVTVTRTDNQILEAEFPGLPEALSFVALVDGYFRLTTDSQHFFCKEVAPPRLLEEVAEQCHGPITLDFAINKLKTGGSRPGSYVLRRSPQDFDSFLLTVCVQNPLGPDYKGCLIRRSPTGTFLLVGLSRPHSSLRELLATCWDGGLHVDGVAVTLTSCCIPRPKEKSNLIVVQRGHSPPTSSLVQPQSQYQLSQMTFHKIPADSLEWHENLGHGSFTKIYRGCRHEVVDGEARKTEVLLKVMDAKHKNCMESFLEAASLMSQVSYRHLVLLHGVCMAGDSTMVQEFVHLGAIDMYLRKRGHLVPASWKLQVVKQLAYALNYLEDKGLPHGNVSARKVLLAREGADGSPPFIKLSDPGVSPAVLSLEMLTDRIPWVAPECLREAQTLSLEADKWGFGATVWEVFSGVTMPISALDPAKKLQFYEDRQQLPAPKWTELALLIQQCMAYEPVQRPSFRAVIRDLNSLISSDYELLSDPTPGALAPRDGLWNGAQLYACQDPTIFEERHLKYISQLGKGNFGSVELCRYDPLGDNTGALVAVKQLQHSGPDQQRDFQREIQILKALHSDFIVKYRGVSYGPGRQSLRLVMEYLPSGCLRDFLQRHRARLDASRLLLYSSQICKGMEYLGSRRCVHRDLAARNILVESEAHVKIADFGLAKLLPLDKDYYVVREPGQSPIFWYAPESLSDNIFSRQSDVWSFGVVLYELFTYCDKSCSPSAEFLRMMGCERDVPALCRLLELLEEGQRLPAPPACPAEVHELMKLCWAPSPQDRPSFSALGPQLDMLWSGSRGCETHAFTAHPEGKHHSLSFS
Sequence of JAK3/JAK1 (P23458 whole entry): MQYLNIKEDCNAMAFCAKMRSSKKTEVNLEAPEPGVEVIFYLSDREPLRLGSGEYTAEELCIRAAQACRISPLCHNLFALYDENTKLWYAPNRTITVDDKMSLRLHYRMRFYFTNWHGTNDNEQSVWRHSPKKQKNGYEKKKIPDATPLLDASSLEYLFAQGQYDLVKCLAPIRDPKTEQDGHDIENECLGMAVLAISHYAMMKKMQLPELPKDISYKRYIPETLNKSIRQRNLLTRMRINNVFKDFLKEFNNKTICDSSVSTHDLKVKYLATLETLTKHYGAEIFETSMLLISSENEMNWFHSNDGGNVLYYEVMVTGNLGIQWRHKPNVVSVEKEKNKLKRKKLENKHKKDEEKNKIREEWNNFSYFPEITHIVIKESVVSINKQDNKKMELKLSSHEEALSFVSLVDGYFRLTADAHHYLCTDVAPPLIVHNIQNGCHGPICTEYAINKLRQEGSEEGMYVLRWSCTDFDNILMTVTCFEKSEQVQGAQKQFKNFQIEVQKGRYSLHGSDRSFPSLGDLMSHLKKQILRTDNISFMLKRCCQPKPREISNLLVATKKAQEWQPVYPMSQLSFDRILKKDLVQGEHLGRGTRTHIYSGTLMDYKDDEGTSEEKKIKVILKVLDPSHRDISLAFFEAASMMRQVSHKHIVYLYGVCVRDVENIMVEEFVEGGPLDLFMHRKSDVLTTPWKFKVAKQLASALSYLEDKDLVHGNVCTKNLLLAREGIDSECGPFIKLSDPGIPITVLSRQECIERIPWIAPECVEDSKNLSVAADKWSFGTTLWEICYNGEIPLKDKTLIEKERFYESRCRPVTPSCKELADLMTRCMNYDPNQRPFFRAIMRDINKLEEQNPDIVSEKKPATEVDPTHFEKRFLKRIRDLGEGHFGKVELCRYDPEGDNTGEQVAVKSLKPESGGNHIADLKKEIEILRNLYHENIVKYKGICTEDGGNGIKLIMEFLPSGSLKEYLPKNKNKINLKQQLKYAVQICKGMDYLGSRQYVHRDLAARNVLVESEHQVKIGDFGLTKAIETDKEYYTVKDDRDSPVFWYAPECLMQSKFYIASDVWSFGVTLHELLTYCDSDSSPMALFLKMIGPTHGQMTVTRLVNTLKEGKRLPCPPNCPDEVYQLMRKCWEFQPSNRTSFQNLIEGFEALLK

COC[C@@H](C)OC(=O)Cc1ccc(Nc2cc(Nc3ccccc3OC)c(C(N)=O)cn2)nc1
IC50 [1]: 5 nM | IC50 (JAK3/JAK1): 131 nM | half-life at 1 µM [2]: 6 min | half-life [3]: 42 min | Drug uptake [4]: 0.223 µM | IC50 [5]: < 100 nM | Stability [6]: Stable | t1/2 [7]: < 20 min
